PMC9320513, “Peptide-Mediated Targeted Delivery of Aloe-Emodin as Anticancer Drug” (Molecules, 2022)
Where a SMILES comes first, the peptide text is derived from it. The star is where a group is joined. X1 = O=C(CCCC(=O)*)OCc1cc(O)c2c(c1)C(=O)c1cccc(O)c1C2=O

How the values were obtained:
NK-92 cells [1] = assay: Proliferation of NK-92 cells, Ki-67 flow cytometry; type: cell-based, Human; details: 48 h, all concentrations except 50 μM
Protocol: (§1) Apoptosis was quantified using FITC-conjugated annexin V (AV) according to the manufacturer’s protocol (Marine Biological Laboratory, Woods Hole, MA, USA). Annexin V-FITC staining in NK-92 cell lines was determined after 48 h in the absence or presence of different amounts of Aloe-emodin (9 mM stock solution in DMSO) ranging from 6.25 to 50 μM. Proliferation was evaluated by measuring Ki-67 nuclear antigen expression using FITC-labeled anti-human Ki-67 mAb according to the manufacturer’s protocol (BD Biosciences, San Jose, CA, USA). Acquisition was performed on a FACSCalibur flow cytometer (BD Biosciences) and at least 10,000 events per sample were run. Data were analyzed using the Cell Quest Pro software (BD Biosciences) and expressed as mean ± standard deviation from 2 independent experiments.

NK-92 cells [2] = assay: Apoptosis in NK-92 cells, Annexin V-FITC flow cytometry; type: cell-based, Human; details: 48 h
Protocol: as §1

NK-92 cells [3] = assay: Growth inhibition of NK92 cells, WST-8 assay; details: 20, 10, 5 and 1 µM, 24, 48 and 72 h, WST-8, two independent experiments
Protocol: NK-92 cell lines in exponential phase of growth were collected, extensively washed with warm RPMI-1640, and seeded (in triplicate) in 96-well microtiter Costar plates (Costar, Rochester, NY, USA) at a density of 5 × 10^3 cells/mL. The cells were cultured in BM containing recombinant IL-2(100 IU/mL). In the growth inhibition assays, NK92 cells were maintained for 24, 48, and 72 h at 37 °C alone or in the presence of 20, 10, 5, and 1 µM of Aloe-emodin, glutaryl derivatives of AE and AE-CPP-LTV (6). For all above-described experiments, cell survival was determined by WST-8 assay (Orangu™ Cell Counting SolutionWST-8 cell proliferation kit (Aurogene, Rome, Italy), after 24, 48, and 72 h treatment at 37 °C in 5% CO2. Cells were treated with different compounds/absorbance values of control (cells incubated with vehicle alone) cells * 100%. Statistical analysis was performed by the Student’s t-test (2-tailed) to assess differences between means of data analyzed. The p-values are indicated in the figure legends. The statistical analysis of differences was performed with GraphPad Prism 8.

[4] = test system: NK92 cells killing K562 target cells; assay: NK92 cell-mediated cytotoxicity against K562 cells, LDH release; type: cell-based, Human; details: NK92 treated 48 h with 5 to 20 μM, E:T ratio 10:1, 4 h with K562, LDH release, 4 independent experiments
Protocol: To determine NK-92’s cell cytotoxicity, CytoTox 96 non-radioactive cytotoxicity assay (Promega, Madison, WI) was used, based on the colorimetric detection of the released enzyme LDH. NK-92 cells were harvested, washed, counted, and diluted at the concentration of 1 × 10^6 cells/mL in BM with 10% FCS and 100 μ/mL of IL-2. […] Target cells were harvested, washed, resuspended to 1 × 10^5 cells/mL in BM, added, and incubated with effector cells for 4 h at 37 °C employing incresingincreasing effector/target cell ratio ranging from 0.625:1 to 10:1 in triplicate. A total of 50 μL of supernatants were assayed for LDH activity according to the manufacturer’s instruction. Controls for spontaneous and maximum LDH release in effector and target cells were also assayed. The calculation of cytotoxicity percentage was as follows: (Experimental—Effector Spontaneous—Target spontaneous)/(Target Maximum—Target Spontaneous) × 100. Data are expressed as mean ± standard deviation from 4 independent experiments. […] The statistical analysis was performed with GraphPad Prism 8.

SKBR3 cells = assay: MTT cell viability assay in SKBR3 cells; type: cell-based, Human
Protocol: (§2) The compounds (2), (3), and (6), were evaluated for cell viability effects using the MTT assay on SKBR3 and A549 cells at 24, 48, and 72 h at different concentrations. Cell lines were seeded into 96-well microtiter plates (Corning, Inc., Corning, NY, USA) at a density of 1 × 10^4 cells/well. After 24 h, cells were exposed to increased concentrations of compounds (previously prepared in PBS to obtain a stock solution of 1 mM) in cell culture medium. After an incubation time of 24, 48, and 72 h, media were removed and MTT (Sigma, Deisenhofen, Germany) diluted in culture media was added to each well at 0.5 mg/mL. Plates were incubated for 2 h at 37 °C in 5% CO2 incubator; unreacted dye was removed, and cells were solubilized in DMSO (Merck, Darmstadt, Germany). Absorbance was read at 570 nm by an ELISA plate reader (Biorad). Data were expressed as cell metabolic activity, which was calculated as the absorbance value of cells treated with different compounds/absorbance value of control (cells incubated with vehicle alone) cells * 100%. All experiments were performed in triplicate, and all data were expressed as the mean ± standard deviation. One-way ANOVA with Dunnett’s multiple comparisons test was performed with respect to the controls (**** p < 0.0001).

A549 cells = assay: MTT cell viability assay in A549 cells; type: cell-based, Human
Protocol: as §2

Structure (SMILES) | proliferation of NK-92 cells (NK-92 cells [1]) | effect on NK-92 cells at the higher dose (NK-92 cells [2]; 50 μM) | apoptosis of NK-92 cells (NK-92 cells [2]; 6.25 to 50 μM, all concentrations except 50 μM, Annexin V-FITC) | growth inhibition of NK-92 cells (NK-92 cells [3]) | NK92-mediated cytotoxicity against K562 compared with untreated NK92 cells [4] | comparative cell viability reduction (3 versus AE (2); 6 versus 3 at 20 μM) (SKBR3 cells) | concentration at which effect on cell viability is already seen (SKBR3 cells) | comparative cell viability reduction (3 versus AE (2); 6 versus 3 at 20 μM) (A549 cells) | concentration at which effect on cell viability is already seen (A549 cells)
O=C1c2cccc(O)c2C(=O)c2c(O)cc(CO)cc21 [compound 2, 8-dihydroxy-3-hydroxymethyl-anthraquinone] | neither AE (2) induced apoptosis or affected proliferation | cytotoxic effect | neither AE (2) induced apoptosis or affected proliferation |  |  |  |  |  | 
O=C(O)CCCC(=O)OCc1cc(O)c2c(c1)C(=O)c1cccc(O)c1C2=O [compound 3, 5-((4,5-dihydroxy-9,10-dioxo-9,10-dihydroanthracen-2-yl)methoxy)-5-oxopentanoic acid] |  |  |  | did not induce growth inhibition | less NK92-mediated cytotoxicity than the control sample | more effective | effective already at 5 µM | more effective | effective already at 5 µM
CC(C)C[C@H](NC(=O)CNC(=O)[C@@H]1CCCN1C(=O)CNC(=O)[C@@H](NC(=O)[C@H](CCCCN)NC(=O)[C@H](CCCNC(=N)N)NC(=O)[C@H](CCCCN)NC(=O)[C@H](CCCCN)NC(=O)[C@H](CCCCN)NC(=O)[C@@H]1CCCN1C(=O)CCCC(=O)OCc1cc(O)c2c(c1)C(=O)c1cccc(O)c1C2=O)C(C)C)C(=O)N[C@H](C(=O)N[C@H](C(=O)N[C@@H](CO)C(=O)N1CCC[C@H]1C(=O)N[C@@H](Cc1c[nH]c2ccccc12)C(=O)N[C@@H](Cc1ccc(O)cc1)C(=O)O)C(C)C)[C@@H](C)O [compound 6] (X1-PKKKRKVGPGLTVSPWY-OH) |  |  |  | did not induce growth inhibition |  |  |  |  | 
